# Source: ChEMBL document CHEMBL3991601, “The target landscape of clinical kinase drugs” (Science, 2017)
# Calls of active or inactive are those of the source. Cut-off read from the data, not from the text of the source, for most assays here: actives have a measured Kd and inactives only a lower limit.
# Legend:
# Deoxycytidine kinase = Deoxycytidine kinase (Homo sapiens, UniProt P27707)
# Activin receptor type-1 = biological target: T1, Activin receptor type-1 (Homo sapiens, UniProt Q04771)
# T1 sequence (Q04771 whole entry): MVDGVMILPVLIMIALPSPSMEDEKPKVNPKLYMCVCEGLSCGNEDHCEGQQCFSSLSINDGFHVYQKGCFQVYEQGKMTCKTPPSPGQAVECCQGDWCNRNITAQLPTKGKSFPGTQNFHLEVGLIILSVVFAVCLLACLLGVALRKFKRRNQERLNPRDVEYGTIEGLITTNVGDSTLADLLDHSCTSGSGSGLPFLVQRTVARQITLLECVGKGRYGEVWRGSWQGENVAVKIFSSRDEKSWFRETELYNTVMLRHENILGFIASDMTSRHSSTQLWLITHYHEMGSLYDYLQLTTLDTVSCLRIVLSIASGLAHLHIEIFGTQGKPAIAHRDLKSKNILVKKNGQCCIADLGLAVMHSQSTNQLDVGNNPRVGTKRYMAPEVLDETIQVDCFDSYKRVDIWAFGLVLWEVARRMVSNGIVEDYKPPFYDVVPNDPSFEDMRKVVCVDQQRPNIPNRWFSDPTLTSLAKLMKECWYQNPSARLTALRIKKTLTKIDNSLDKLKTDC
# [1] = biological target: cAMP-dependent protein kinase catalytic subunit beta (Homo sapiens, UniProt P22694)
# [2] = biological target: T2, Serine/threonine-protein kinase D2 (Homo sapiens, UniProt Q9BZL6)
# T2 sequence (Q9BZL6 whole entry): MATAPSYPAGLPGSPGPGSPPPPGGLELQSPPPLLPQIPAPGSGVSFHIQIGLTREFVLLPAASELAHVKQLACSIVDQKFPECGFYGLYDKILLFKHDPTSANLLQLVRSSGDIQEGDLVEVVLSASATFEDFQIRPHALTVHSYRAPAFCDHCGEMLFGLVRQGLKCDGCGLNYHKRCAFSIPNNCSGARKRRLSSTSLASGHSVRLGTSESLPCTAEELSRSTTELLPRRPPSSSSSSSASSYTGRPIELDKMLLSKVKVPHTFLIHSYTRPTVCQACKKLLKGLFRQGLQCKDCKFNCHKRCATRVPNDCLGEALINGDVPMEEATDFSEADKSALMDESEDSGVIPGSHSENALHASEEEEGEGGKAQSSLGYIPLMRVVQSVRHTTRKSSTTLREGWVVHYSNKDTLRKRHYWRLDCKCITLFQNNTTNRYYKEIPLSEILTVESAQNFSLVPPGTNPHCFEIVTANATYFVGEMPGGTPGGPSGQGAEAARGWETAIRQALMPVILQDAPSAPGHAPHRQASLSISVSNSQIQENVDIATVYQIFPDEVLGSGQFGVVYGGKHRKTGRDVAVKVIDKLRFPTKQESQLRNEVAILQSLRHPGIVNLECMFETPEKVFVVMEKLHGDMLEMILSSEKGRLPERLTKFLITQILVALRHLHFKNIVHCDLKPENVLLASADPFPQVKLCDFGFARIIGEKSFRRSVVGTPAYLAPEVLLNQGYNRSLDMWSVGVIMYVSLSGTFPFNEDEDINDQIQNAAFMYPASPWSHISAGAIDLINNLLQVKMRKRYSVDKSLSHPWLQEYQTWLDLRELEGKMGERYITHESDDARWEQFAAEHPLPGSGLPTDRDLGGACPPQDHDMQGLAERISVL
# Ephrin type-A receptor 4 = Ephrin type-A receptor 4 (Homo sapiens, UniProt P54764)
# Chain of Ephrin type-A receptor 4 (P54764 whole entry): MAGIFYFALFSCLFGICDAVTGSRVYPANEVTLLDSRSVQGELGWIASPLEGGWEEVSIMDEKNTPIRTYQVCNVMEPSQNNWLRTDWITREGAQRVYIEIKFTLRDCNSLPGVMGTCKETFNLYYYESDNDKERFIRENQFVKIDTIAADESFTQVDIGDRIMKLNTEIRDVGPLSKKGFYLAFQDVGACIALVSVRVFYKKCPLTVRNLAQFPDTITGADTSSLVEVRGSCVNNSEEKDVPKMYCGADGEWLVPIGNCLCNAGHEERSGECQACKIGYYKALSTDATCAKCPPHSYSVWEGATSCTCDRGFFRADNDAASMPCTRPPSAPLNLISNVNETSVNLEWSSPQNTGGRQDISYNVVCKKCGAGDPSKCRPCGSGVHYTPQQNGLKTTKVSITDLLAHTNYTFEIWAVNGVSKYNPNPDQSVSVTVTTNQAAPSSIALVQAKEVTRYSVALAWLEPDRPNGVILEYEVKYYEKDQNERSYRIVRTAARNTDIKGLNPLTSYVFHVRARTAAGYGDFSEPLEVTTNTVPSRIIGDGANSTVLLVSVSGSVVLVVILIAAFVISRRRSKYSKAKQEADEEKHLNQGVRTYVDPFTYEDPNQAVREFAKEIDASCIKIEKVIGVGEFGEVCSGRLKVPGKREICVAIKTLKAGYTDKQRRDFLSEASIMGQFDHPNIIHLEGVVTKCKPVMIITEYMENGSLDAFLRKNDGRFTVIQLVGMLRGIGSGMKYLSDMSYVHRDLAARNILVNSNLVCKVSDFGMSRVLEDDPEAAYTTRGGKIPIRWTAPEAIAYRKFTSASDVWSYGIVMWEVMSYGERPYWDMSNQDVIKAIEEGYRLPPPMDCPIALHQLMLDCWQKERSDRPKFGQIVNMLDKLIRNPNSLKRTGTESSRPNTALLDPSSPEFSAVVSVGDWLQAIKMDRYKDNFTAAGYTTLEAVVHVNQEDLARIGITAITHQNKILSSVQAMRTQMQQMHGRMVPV
# [3] = biological target: T3, Peroxisomal acyl-coenzyme A oxidase 3 (Homo sapiens, UniProt O15254)
# T3 sequence (O15254 whole entry): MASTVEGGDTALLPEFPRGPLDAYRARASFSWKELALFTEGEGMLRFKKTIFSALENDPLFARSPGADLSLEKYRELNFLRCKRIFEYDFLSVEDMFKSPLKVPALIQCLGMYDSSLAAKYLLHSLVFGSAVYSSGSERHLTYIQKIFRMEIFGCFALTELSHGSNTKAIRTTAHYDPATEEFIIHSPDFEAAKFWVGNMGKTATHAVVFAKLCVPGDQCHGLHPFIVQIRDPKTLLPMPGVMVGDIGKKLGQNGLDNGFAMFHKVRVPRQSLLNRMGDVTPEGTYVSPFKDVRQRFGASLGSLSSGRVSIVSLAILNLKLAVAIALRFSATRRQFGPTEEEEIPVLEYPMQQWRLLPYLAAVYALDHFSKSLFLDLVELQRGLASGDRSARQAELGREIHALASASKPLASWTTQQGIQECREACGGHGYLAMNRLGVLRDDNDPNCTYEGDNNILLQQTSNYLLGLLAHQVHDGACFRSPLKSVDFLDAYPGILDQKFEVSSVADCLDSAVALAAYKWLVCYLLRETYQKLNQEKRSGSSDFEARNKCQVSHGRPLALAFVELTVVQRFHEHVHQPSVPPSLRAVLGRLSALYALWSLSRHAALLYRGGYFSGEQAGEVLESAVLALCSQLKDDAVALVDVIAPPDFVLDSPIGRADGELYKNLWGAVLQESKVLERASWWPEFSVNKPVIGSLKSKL
# [4] = biological target: Eukaryotic translation initiation factor 2-alpha kinase 1 (Homo sapiens, UniProt Q9BQI3)
# Chain of Eukaryotic translation initiation factor 2-alpha kinase 1 (Q9BQI3 whole entry, the tested form may be a part): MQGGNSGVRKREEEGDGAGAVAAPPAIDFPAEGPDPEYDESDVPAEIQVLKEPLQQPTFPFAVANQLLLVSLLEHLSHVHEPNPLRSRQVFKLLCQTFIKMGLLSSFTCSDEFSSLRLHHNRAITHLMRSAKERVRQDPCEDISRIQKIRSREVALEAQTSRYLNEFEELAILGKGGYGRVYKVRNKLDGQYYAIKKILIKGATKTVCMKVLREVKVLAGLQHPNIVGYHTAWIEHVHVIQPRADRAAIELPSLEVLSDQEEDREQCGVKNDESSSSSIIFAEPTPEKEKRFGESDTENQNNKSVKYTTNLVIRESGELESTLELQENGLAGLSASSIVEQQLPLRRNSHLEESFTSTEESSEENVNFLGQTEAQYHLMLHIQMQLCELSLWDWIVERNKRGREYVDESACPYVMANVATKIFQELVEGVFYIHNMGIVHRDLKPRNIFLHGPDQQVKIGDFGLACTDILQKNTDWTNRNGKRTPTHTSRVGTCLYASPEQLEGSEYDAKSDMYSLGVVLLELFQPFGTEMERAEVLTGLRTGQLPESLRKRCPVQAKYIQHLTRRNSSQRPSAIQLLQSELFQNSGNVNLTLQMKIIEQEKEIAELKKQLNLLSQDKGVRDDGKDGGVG
# [5] = biological target: Epithelial discoidin domain-containing receptor 1 (Homo sapiens, UniProt Q08345)
# Chain of Epithelial discoidin domain-containing receptor 1 (Q08345 whole entry, the tested form may be a part): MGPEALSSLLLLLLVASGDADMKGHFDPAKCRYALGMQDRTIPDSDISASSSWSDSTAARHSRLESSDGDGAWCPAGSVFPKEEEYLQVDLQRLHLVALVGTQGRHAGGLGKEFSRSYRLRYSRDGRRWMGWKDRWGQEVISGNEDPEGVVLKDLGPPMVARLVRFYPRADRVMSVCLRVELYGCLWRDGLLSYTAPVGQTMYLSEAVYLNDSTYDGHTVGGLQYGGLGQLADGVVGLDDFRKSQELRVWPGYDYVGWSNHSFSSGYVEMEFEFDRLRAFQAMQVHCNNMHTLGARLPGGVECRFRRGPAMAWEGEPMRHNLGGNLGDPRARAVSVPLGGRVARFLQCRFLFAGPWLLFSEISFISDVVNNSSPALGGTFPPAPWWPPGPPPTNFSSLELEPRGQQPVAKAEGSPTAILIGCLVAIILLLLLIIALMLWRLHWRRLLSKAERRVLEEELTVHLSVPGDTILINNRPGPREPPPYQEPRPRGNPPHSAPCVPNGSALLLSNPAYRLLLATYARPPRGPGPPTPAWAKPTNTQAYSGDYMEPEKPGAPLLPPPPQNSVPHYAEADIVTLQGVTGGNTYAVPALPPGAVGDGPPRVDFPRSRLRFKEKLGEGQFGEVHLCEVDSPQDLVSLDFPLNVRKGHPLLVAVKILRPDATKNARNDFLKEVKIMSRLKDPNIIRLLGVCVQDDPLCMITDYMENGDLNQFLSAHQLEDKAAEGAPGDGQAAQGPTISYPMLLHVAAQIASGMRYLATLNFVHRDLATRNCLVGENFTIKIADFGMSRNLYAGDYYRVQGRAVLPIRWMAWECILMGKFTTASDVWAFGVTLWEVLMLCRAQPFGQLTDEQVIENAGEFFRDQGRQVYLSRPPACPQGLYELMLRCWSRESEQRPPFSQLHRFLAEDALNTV
# Note: in the data inactive means no Kd found up to 30 µM.
# Chain of Deoxycytidine kinase (P27707 whole entry): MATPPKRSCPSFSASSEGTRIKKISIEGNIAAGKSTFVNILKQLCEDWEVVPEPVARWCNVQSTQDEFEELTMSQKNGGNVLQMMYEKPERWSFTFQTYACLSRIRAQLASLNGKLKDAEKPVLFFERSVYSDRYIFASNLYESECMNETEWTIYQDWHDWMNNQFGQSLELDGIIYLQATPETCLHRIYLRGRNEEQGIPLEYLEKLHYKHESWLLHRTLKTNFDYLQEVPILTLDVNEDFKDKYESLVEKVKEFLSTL
Structure (SMILES),Kd (Deoxycytidine kinase),Kd (Activin receptor type-1),Kd [1],Kd [2],Kd (Ephrin type-A receptor 4),Kd [3],Kd [4],Kd [5]
COc1cccc2cc(-c3nc([C@H]4CC[C@H](C(=O)O)CC4)n4ncnc(N)c34)[nH]c12 [OSI-027],> 30 µM (inactive),> 30 µM (inactive),> 30 µM (inactive),> 30 µM (inactive),> 30 µM (inactive),> 30 µM (inactive),> 30 µM (inactive),> 30 µM (inactive)
O=C(Nc1ccc(OC(F)(F)F)cc1)c1sccc1NCc1ccnc2ccccc12 [OSI-930],> 30 µM (inactive),> 30 µM (inactive),> 30 µM (inactive),> 30 µM (inactive),> 30 µM (inactive),> 30 µM (inactive),> 30 µM (inactive),> 30 µM (inactive)
C=CC(=O)Nc1cc(Nc2nccc(-c3cn(C)c4ccccc34)n2)c(OC)cc1N(C)CCN(C)C [OSIMERTINIB],> 30 µM (inactive),> 30 µM (inactive),> 30 µM (inactive),> 30 µM (inactive),> 30 µM (inactive),> 30 µM (inactive),> 30 µM (inactive),> 30 µM (inactive)
FC(F)(F)c1ccc(CNc2ccc(Cc3c[nH]c4ncc(Cl)cc34)cn2)cn1 [PEXIDARTINIB],> 30 µM (inactive),> 30 µM (inactive),> 30 µM (inactive),> 30 µM (inactive),> 30 µM (inactive),> 30 µM (inactive),> 30 µM (inactive),> 30 µM (inactive)
CC(C)CC(=O)Nc1[nH]nc2c1CN(C(=O)C1CCN(C)CC1)C2(C)C [PHA-793887],> 30 µM (inactive),> 30 µM (inactive),> 30 µM (inactive),0.103 µM (active),> 30 µM (inactive),> 30 µM (inactive),> 30 µM (inactive),> 30 µM (inactive)
O=C(NC[C@H](O)CO)c1ccncc1Nc1ccc(I)cc1F [PIMASERTIB],> 30 µM (inactive),> 30 µM (inactive),> 30 µM (inactive),> 30 µM (inactive),> 30 µM (inactive),> 30 µM (inactive),> 30 µM (inactive),> 30 µM (inactive)
COc1cc(F)c(F)c(Nc2ccc(I)cc2F)c1NS(=O)(=O)C1(C[C@H](O)CO)CC1 [REFAMETINIB],> 30 µM (inactive),> 30 µM (inactive),> 30 µM (inactive),> 30 µM (inactive),> 30 µM (inactive),> 30 µM (inactive),> 30 µM (inactive),> 30 µM (inactive)
COCCN1CCN(Cc2ccc(-c3n[nH]c4c3C(=O)c3c(NC(=O)NN5CCOCC5)cccc3-4)cc2)CC1 [RGB-286638],> 30 µM (inactive),> 30 µM (inactive),> 30 µM (inactive),0.195 µM (active),> 30 µM (inactive),> 30 µM (inactive),3.8 µM (active),> 30 µM (inactive)
O=C(O)c1ccc2c(c1)nc(Nc1cccc(Cl)c1)c1ccncc12 [SILMITASERTIB],> 30 µM (inactive),> 30 µM (inactive),> 30 µM (inactive),> 30 µM (inactive),> 30 µM (inactive),> 30 µM (inactive),1.66 µM (active),> 30 µM (inactive)
C=CCN(/C=C1/C(=O)O[C@H](COC)[C@@]2(C)C1=C(O)C(=O)C1=C2[C@H](OC(C)=O)C[C@]2(C)C(=O)CC[C@@H]12)CC=C [SONOLISIB],> 30 µM (inactive),> 30 µM (inactive),> 30 µM (inactive),> 30 µM (inactive),> 30 µM (inactive),> 30 µM (inactive),> 30 µM (inactive),> 30 µM (inactive)
CN1CCN(c2nc(C3=C(c4c[nH]c5ccccc45)C(=O)NC3=O)c3ccccc3n2)CC1 [SOTRASTAURIN],> 30 µM (inactive),> 30 µM (inactive),> 30 µM (inactive),> 30 µM (inactive),> 30 µM (inactive),> 30 µM (inactive),> 30 µM (inactive),> 30 µM (inactive)
